The results in this text go back to ChEMBL document CHEMBL5370596, “Wulfenioidins D-N, Structurally Diverse Diterpenoids with Anti-Zika Virus Activity Isolated from Orthosiphon wulfenioides” (J Nat Prod, 2023).

The nature of data set [1]: (§1) Cytotoxicity against African green monkey Vero cells assessed as reduction in cell viability after 72 hrs by CCK-8 assay. Type of data set: toxicity, cell-based. The following applies: chlorocebus sabaeus, Vero cells.
For data set [2], the system named is Zika virus. Nature of the data set: Antiviral activity against ZIKV infected in African green monkey Vero cells assessed as inhibition of viral replication at 50 uM incubated for 72 hrs by qRT-PCR analysis. Type of data set: functional, organism-based. On the technique in general: In qPCR the cycle at which signal appears reflects the starting amount.
In data set [3] the test system is Zika virus. As to the kind of experiment: Antiviral activity against ZIKV infected in African green monkey Vero cells assessed as inhibition of viral replication incubated for 72 hrs by qRT-PCR analysis. Type of data set: functional, organism-based.
Data set [4] deals with Zika virus. As to the kind of experiment: Antiviral activity against ZIKV infected in African green monkey Vero cells assessed as inhibition of viral E protein expression incubated for 72 hrs by Western blot analysis. Type of data set: functional, organism-based. To be noted: dose 5-20 µM.
In data set [5] the test system is Zika virus. As to the kind of experiment: Antiviral activity against ZIKV infected in African green monkey Vero cells assessed as inhibition of viral E protein expression at 20 uM incubated for 72 hrs by immunofluorescence analysis. Type of data set: functional, organism-based.
In a further data set the test system is Vero. The data set is described as §1. Type of data set: toxicity, cell-based. The following applies: chlorocebus sabaeus, vero, 72 h.

The source made the active and inactive calls. No cut-off for these calls is given here.

As for `CO[C@@H]1CCC(C)(C)Oc2c(O)c(C(C)C)cc3ccc(C)c1c23`, the CC50 at 72 h in data set [1] is more than 100 µM. Further, the inhibition entry in the data set on Zika virus [2] and in the data set with Zika virus [5] was “Active” in each case. Further, in the data set with Zika virus [3], the half-maximal effective concentration (EC50) came out at 8.07 µM. Further, the inhibition entry in the data set with Zika virus [4] is “Dose-Dependent Effect”.
`CC1=C2CCCC(C)(C)[C@@H]2CC[C@@]12C=C(C(C)C)C(=O)O2`: the Activity entry with Vero was “Toxic”.
Same read-out and setting: under `Cc1nc2c(C(C)C)cc3c(c2o1)[C@@]1(C)CCCC(C)(C)[C@@H]1C=C3` stands “Toxic”; under `CC(C)c1cc2c(c3ocnc13)[C@@]1(C)CCCC(C)(C)[C@@H]1CC2`, “Toxic”; under `CCc1nc2c(C(C)C)cc3c(c2o1)[C@@]1(C)CCCC(C)(C)[C@@H]1CC3`, “Toxic”.
As for `COC(C)(C)C1=Cc2ccc(C)c3c2[C@@](O)(C1=O)C(C)(C)CCC3`, the cytotoxic concentration (CC50) at 72 h in data set [1] is more than 100 µM. Further, the inhibition entry in the data set with Zika virus [2] and in the data set on Zika virus [5] was “Active” in each case. In addition, the EC50 in the data set on Zika virus [3] was determined as 8 µM. In addition, in the data set with Zika virus [4], the inhibition result is “Dose-Dependent Effect”.

The CC50 is the concentration at which the toxic effect on the cells reaches its halfway point. The term EC50 denotes the concentration at which the effect is half-maximal.
